Results reported in ChEMBL document CHEMBL5131433, “Novel benzothiazole-based dual VEGFR-2/EGFR inhibitors targeting breast and liver cancers: Synthesis, cytotoxic activity, QSAR and molecular docking studies” (Bioorg Med Chem Lett, 2022).

Columns and labels:
MCF7 = test: cells; conditions: Homo sapiens, MCF7, 72 h
Description: Anticancer activity against human MCF7 cells assessed as inhibition of cell growth incubated for 3 days by MTT assay

HepG2 = test: cells; conditions: Homo sapiens, HepG2, 72 h
Description: Anticancer activity against human HepG2 cells assessed as inhibition of cell growth incubated for 3 days by MTT assay

MDA-MB-231 = test: Anticancer activity against human MDA-MB-231 cells assessed as inhibition of cell growth incubated for 3 days by MTT assay; type: functional, cell-based; conditions: MDA-MB-231, 72 h
[1] = Cytotoxicity against human WI-38 cells assessed as inhibition of cell growth incubated for 3 days by MTT assay; type: toxicity, cell-based
[2] = target: Vascular endothelial growth factor receptor 2 (Homo sapiens, UniProt P35968); test: Inhibition of VEGFR2 (unknown origin)
[3] = target: Epidermal growth factor receptor (Homo sapiens, UniProt P00533); test: Inhibition of EGFR (unknown origin)
Sequence of Epidermal growth factor receptor (P00533 whole entry): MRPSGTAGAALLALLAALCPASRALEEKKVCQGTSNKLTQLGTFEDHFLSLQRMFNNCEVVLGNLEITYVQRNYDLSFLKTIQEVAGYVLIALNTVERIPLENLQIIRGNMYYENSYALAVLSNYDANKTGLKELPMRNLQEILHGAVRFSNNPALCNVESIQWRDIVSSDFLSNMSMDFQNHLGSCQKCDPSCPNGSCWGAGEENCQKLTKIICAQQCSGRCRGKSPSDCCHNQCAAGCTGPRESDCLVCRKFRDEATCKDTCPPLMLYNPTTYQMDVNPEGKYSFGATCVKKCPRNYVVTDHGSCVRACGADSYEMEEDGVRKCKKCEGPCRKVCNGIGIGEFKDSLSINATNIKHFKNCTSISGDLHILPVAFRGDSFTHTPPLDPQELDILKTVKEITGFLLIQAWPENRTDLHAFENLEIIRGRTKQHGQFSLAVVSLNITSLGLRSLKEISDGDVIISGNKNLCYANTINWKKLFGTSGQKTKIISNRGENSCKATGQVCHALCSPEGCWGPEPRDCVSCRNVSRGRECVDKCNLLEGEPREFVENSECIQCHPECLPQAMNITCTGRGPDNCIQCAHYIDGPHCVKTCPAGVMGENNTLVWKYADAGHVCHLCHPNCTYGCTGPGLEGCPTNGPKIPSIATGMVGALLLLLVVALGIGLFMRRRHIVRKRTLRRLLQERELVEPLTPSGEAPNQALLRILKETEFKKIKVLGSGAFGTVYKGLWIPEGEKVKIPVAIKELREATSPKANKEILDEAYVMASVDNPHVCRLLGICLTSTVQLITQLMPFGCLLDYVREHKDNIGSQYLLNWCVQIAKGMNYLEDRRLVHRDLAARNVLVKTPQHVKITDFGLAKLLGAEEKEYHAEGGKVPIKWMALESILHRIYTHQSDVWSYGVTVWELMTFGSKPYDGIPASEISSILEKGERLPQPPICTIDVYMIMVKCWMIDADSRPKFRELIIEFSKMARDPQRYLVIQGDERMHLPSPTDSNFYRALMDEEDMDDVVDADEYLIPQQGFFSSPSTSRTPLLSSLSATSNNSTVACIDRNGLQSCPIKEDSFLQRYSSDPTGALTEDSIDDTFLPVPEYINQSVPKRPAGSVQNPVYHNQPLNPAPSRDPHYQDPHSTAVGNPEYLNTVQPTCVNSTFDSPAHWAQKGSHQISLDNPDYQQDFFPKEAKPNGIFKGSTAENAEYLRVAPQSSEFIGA

Sequence of Vascular endothelial growth factor receptor 2 (P35968 whole entry): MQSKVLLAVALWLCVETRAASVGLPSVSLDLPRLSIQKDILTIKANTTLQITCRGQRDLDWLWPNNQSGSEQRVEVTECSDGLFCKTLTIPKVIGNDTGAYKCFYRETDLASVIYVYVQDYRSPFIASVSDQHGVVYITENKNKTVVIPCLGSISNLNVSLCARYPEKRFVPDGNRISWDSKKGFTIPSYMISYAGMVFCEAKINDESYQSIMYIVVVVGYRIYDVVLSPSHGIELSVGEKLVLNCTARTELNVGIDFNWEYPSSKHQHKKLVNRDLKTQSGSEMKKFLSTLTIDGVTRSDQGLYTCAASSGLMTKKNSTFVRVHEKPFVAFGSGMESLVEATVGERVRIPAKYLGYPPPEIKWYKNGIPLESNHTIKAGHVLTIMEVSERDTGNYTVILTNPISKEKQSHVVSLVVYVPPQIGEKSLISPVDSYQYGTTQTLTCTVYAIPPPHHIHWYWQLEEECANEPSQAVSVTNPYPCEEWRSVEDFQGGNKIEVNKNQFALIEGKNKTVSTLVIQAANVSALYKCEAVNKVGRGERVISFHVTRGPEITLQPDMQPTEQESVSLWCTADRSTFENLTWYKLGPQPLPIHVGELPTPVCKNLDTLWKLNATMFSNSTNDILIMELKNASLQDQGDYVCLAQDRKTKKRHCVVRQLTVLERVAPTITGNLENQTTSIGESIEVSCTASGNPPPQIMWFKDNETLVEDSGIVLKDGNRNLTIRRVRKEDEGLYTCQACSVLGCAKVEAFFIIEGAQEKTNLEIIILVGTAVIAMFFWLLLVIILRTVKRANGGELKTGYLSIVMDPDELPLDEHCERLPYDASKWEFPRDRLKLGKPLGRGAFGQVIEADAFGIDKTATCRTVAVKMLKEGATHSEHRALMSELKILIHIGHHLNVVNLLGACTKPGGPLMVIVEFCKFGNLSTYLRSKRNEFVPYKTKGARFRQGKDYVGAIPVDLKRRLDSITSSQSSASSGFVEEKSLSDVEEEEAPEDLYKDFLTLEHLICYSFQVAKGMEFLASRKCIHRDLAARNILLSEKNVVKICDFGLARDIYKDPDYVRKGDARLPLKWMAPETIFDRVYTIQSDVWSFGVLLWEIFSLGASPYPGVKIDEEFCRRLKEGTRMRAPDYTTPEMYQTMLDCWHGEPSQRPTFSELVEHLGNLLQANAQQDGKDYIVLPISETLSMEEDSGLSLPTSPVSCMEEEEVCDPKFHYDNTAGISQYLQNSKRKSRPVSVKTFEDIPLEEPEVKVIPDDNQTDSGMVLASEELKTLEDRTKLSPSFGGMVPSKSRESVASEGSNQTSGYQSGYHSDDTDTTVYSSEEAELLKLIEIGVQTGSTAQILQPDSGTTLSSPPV

| SMILES | IC50 (MCF7) [nM] | IC50 (HepG2) [nM] | IC50 (MDA-MB-231) [nM] | IC50 [2] [nM] | IC50 [3] [nM] | IC50 at 3 days [1] [nM] |
| --- | --- | --- | --- | --- | --- | --- |
| CC[C@H](C)[C@H](NCC(=O)NNC(=O)COc1ccc(-c2nc3ccccc3s2)cc1OC)C(=O)O | 1710 | 3540 | – | – | – | – |
| CCOC(=O)[C@H](Cc1c[nH]c2ccccc12)NCC(=O)NNC(=O)COc1ccc(-c2nc3ccccc3s2)cc1OC | 730 | 2540 | 5450 | 178 | 114 | 92700 |
| CCOC(=O)[C@H](CCCNC(=N)NCC(=O)NNC(=O)COc1ccc(-c2nc3ccccc3s2)cc1OC)N[N+](=O)[O-] | 1950 | 3730 | – | – | – | – |
| COc1cc(-c2nc3ccccc3s2)ccc1OCC(=O)NNC(=O)CN[C@@H](Cc1c[nH]cn1)C(=O)O | 890 | 2800 | 11000 | 171 | 305 | 49500 |
| COc1cccc2c1C(=O)c1c(O)c3c(c(O)c1C2=O)C[C@@](O)(C(=O)CO)C[C@@H]3O[C@H]1C[C@H](N)[C@H](O)[C@H](C)O1 [DOXORUBICIN] | – | 2750 | 7460 | – | – | 79700 |
| CCOC(=O)[C@H](CS)N(CC(=O)NNC(=O)COc1ccc(-c2nc3ccccc3s2)cc1OC)C(C)=O | 1890 | 3010 | – | – | – | – |
| COc1cc(-c2nc3ccccc3s2)ccc1OCC(=O)NNC(O)CN(C)CC(=O)O (stereo not drawn) | 1960 | 3030 | – | – | – | – |
| CCOC(=O)[C@H](CCSC)NCC(=O)NNC(=O)COc1ccc(-c2nc3ccccc3s2)cc1OC | 1760 | 3330 | – | – | – | – |
| CCOC(=O)[C@H](Cc1c[nH]cn1)NCC(=O)NNC(=O)COc1ccc(-c2nc3ccccc3s2)cc1OC | 740 | 2680 | 5670 | 152 | 157 | 89400 |
| COc1cc(-c2nc3ccccc3s2)ccc1OCC(=O)NNC(=O)CNC(=N)NCCC[C@H](N[N+](=O)[O-])C(=O)O | 1960 | 3490 | – | – | – | – |

More lines, in order of falling IC50 (MCF7), values ahead:

| IC50 (MCF7) [nM] | IC50 (HepG2) [nM] | IC50 (MDA-MB-231) [nM] | IC50 [2] [nM] | IC50 [3] [nM] | SMILES | IC50 at 3 days [1] [nM] |
| --- | --- | --- | --- | --- | --- | --- |
| 2900 | 3970 | – | – | – | CCOC(=O)[C@H](NCC(=O)NNC(=O)COc1ccc(-c2nc3ccccc3s2)cc1OC)[C@@H](C)CC | – |
| 2880 | 3760 | – | – | – | CCOC(=O)[C@H](CS)NCC(=O)NNC(=O)COc1ccc(-c2nc3ccccc3s2)cc1OC | – |
| 1990 | 3360 | – | – | – | CCOC(=O)[C@H](CS(=O)(=O)O)NCC(=O)NNC(=O)COc1ccc(-c2nc3ccccc3s2)cc1OC | – |
| 1980 | 3180 | – | – | – | CCOC(=O)CN(C)CC(=O)NNC(=O)COc1ccc(-c2nc3ccccc3s2)cc1OC | – |
| 1950 | 3460 | – | – | – | CCOC(=O)[C@@H](NCC(=O)NNC(=O)COc1ccc(-c2nc3ccccc3s2)cc1OC)[C@@H](C)CC | – |
| 1950 | 3780 | – | – | – | COc1cc(-c2nc3ccccc3s2)ccc1OCC(=O)NNC(=O)CN[C@@H](CCSC)C(=O)O | – |
| 1870 | 3690 | – | – | – | COc1cc(-c2nc3ccccc3s2)ccc1OCC(=O)NNC(=O)CN[C@@H](CS(=O)(=O)O)C(=O)O | – |
| 1790 | 3990 | – | – | – | CC[C@H](C)[C@@H](NCC(=O)NNC(=O)COc1ccc(-c2nc3ccccc3s2)cc1OC)C(=O)O | – |
| 1750 | 3420 | – | – | – | COc1cc(-c2nc3ccccc3s2)ccc1OCC(=O)NNC(=O)CN(C(C)=O)[C@@H](CS)C(=O)O | – |
| 1230 | 3120 | – | – | – | COc1cc(-c2nc3ccccc3s2)ccc1OCC(=O)NNC(=O)CN[C@@H](CS)C(=O)O | – |
| 840 | 2650 | 8880 | 188 | 342 | COc1cc(-c2nc3ccccc3s2)ccc1OCC(=O)NNC(=O)CN1CCC[C@H]1C(=O)O | 68600 |
| 830 | 2580 | 10400 | 162 | 209 | COc1cc(-c2nc3ccccc3s2)ccc1OCC(=O)NNC(=O)CN[C@@H](Cc1c[nH]c2ccccc12)C(=O)O | 60800 |
| 780 | 2890 | – | – | – | COc1cc(-c2nc3ccccc3s2)ccc1OCC(=O)NNC(=O)CCl | – |
| 770 | 2800 | 7280 | 163 | 109 | CCOC(=O)[C@@H]1CCCN1CC(=O)NNC(=O)COc1ccc(-c2nc3ccccc3s2)cc1OC | 75100 |
